# Tests used:
# Format in all cases: functional, organism-based
# Plasmodium falciparum [1] = test: Antimalarial activity against chloroquine-resistant Plasmodium falciparum W2
# Plasmodium falciparum [2] = test: Antimalarial activity against chloroquine,mefloquine-sensitive Plasmodium falciparum D6
# Plasmodium falciparum [3] = test: Antimalarial activity against multidrug-resistant Plasmodium falciparum TM91C235
SMILES,IC50 (Plasmodium falciparum [1]) [µM],IC90 (Plasmodium falciparum [1]) [µM],IC50 (Plasmodium falciparum [2]) [µM],IC90 (Plasmodium falciparum [2]) [µM],IC50 (Plasmodium falciparum [3]) [µM],IC90 (Plasmodium falciparum [3]) [µM]
COC(=O)CC[C@@H](C)[C@H]1CC[C@H]2[C@@H]3[C@H](OC(C)=O)C[C@@H]4C[C@@H](NCCNc5ccnc6cc(Cl)ccc56)CC[C@]4(C)[C@H]3C[C@H](OC(C)=O)[C@]12C,0.00338,0.00674,0.00617,0.0104,0.011,0.025
CC(=O)O[C@@H]1CC[C@@]2(C)[C@@H](C1)C[C@@H](OC(C)=O)[C@@H]1[C@@H]2C[C@H](OC(C)=O)[C@]2(C)[C@@H]([C@H](C)CCC(=O)NCCNc3ccnc4cc(Cl)ccc34)CC[C@@H]12,0.0489,0.0706,0.019,0.0211,0.0288,0.0348
Clc1ccc2c(NCCCCCNCC34CC5CC(CC(C5)C3)C4)ccnc2c1,0.131,0.168,0.0152,0.0189,0.0753,0.161
CC(=O)O[C@@H]1CC[C@@]2(C)[C@@H](C1)C[C@@H](OC(C)=O)[C@@H]1[C@@H]2C[C@H](OC(C)=O)[C@]2(C)[C@@H]([C@H](C)CCCNCCNc3ccnc4cc(Cl)ccc34)CC[C@@H]12,0.0114,0.0325,0.0169,0.0342,0.0277,0.0779
COC(=O)CC[C@@H](C)[C@H]1CC[C@H]2[C@@H]3[C@H](OC(C)=O)C[C@@H]4C[C@H](OCCNc5ccnc6cc(Cl)ccc56)CC[C@]4(C)[C@H]3C[C@H](OC(C)=O)[C@]12C,0.111,0.147,0.033,0.0993,0.0505,0.0728
CC(=O)O[C@@H]1CC[C@@]2(C)[C@@H](C1)C[C@@H](OC(C)=O)[C@@H]1[C@@H]2C[C@H](OC(C)=O)[C@]2(C)[C@@H]([C@H](C)CCC(=O)Nc3ccnc4cc(Cl)ccc34)CC[C@@H]12,7.19,,3.02,6.92,3.51,6.06
CC(=O)O[C@@H]1CC[C@@]2(C)[C@@H](C1)C[C@@H](OC(C)=O)[C@@H]1[C@@H]2C[C@H](OC(C)=O)[C@]2(C)[C@@H]([C@H](C)CCCNc3ccnc4cc(Cl)ccc34)CC[C@@H]12,0.14,1.18,0.0158,0.0705,0.0301,0.0686
Clc1ccc2c(NCCNCC34CC5CC(CC(C5)C3)C4)ccnc2c1,0.0084,0.0152,0.00426,0.00823,0.00873,0.0149
O=C(CC12CC3CC(CC(C3)C1)C2)NCCCNc1ccnc2cc(Cl)ccc12,0.337,0.853,0.106,0.294,0.201,0.464
O=C(CC12CC3CC(CC(C3)C1)C2)NCCCCCNc1ccnc2cc(Cl)ccc12,0.518,0.66,0.267,0.347,0.602,0.777
O=C(NCCCNc1ccnc2cc(Cl)ccc12)C12CC3CC(CC(C3)C1)C2,0.878,1.36,0.214,0.37,0.525,0.787
O=C(CC12CC3CC(CC(C3)C1)C2)NCCNc1ccnc2cc(Cl)ccc12,0.254,0.397,0.0785,0.157,0.238,0.383
O=C(NCCCCCNc1ccnc2cc(Cl)ccc12)C12CC3CC(CC(C3)C1)C2,0.884,1.41,0.511,0.632,0.765,0.984
Clc1ccc2c(NCCNCCC34CC5CC(CC(C5)C3)C4)ccnc2c1,0.0157,0.031,0.00859,0.0137,0.0178,0.0244
Clc1ccc2c(NCCCCCNCCC34CC5CC(CC(C5)C3)C4)ccnc2c1,0.16,0.311,0.0219,0.0248,0.0672,0.168
Clc1ccc2c(NCCCN(CCC34CC5CC(CC(C5)C3)C4)CCC34CC5CC(CC(C5)C3)C4)ccnc2c1,0.0832,0.132,0.0522,0.0783,0.109,0.171
COC(=O)CC[C@@H](C)[C@H]1CC[C@H]2[C@@H]3[C@H](OC(C)=O)C[C@@H]4C[C@H](NCCNc5ccnc6cc(Cl)ccc56)CC[C@]4(C)[C@H]3C[C@H](OC(C)=O)[C@]12C,0.00574,0.0112,0.00947,0.0123,0.0128,0.0244
COC(=O)CC[C@@H](C)[C@H]1CC[C@H]2[C@@H]3[C@H](OC(C)=O)C[C@@H]4C[C@H](Nc5ccnc6cc(Cl)ccc56)CC[C@]4(C)[C@H]3C[C@H](OC(C)=O)[C@]12C,0.108,0.563,0.0106,0.0207,0.0301,0.0686
COC(=O)CC[C@@H](C)[C@H]1CC[C@H]2[C@@H]3[C@H](OC(C)=O)C[C@@H]4C[C@H](OCCNCCNc5ccnc6cc(Cl)ccc56)CC[C@]4(C)[C@H]3C[C@H](OC(C)=O)[C@]12C,0.0178,0.0246,0.0141,0.0228,0.0322,0.076
CCCNC(=O)CC[C@@H](C)[C@H]1CC[C@H]2[C@@H]3[C@H](OC(C)=O)C[C@@H]4C[C@H](Nc5ccnc6cc(Cl)ccc56)CC[C@]4(C)[C@H]3C[C@H](OC(C)=O)[C@]12C,0.209,1.85,0.0682,0.0982,0.0995,0.367
Clc1ccc2c(NCCCNCC34CC5CC(CC(C5)C3)C4)ccnc2c1,0.0121,0.0201,0.00383,0.00641,0.00739,0.0202
O=C(NCCNc1ccnc2cc(Cl)ccc12)C12CC3CC(CC(C3)C1)C2,0.485,0.724,0.202,0.465,0.439,0.685
Clc1ccc2c(NCCCNCCC34CC5CC(CC(C5)C3)C4)ccnc2c1,0.0337,0.0561,0.0114,0.0233,0.0421,0.171
Clc1ccc2c(NCCN(CCC34CC5CC(CC(C5)C3)C4)CCC34CC5CC(CC(C5)C3)C4)ccnc2c1,0.0782,0.113,0.0519,0.07,0.101,0.225
C[C@@H]1CC[C@H]2[C@@H](C)C(=O)O[C@@H]3O[C@@]4(C)CC[C@@H]1[C@]32OO4 [ARTEMISININ],0.0067,0.0115,0.009,0.0128,0.013,0.0174
CCN(CC)CCCC(C)Nc1ccnc2cc(Cl)ccc12 (stereo not given) [CHLOROQUINE],,0.53,,0.0164,,
O[C@@H](c1cc(C(F)(F)F)nc2c(C(F)(F)F)cccc12)[C@H]1CCCCN1 [MEFLOQUINE],,0.0147,0.0112,0.0281,,0.106

# From ChEMBL document CHEMBL1155893 (J Med Chem, 2008)
